Like-named read-outs stand apart in the source and are kept apart here.
Key:
[1] = system: neomycin-induced hearing loss; details: guinea pigs
Protocol: Guinea pigs weighing 250-300 g were used in all experiments. All interventions (including ABR measurements and intratympanic treatments) are performed under general anesthesia using i.p. injection of a cocktail of Ketamine and Xylazine.
A loudspeaker is placed in each ear and the ABR responses were detected by four surface electrodes. These electrodes are placed two in the mastoid region and one in vertex as positive and fourth electrode was placed on forehead as the ground electrode. Calibrated acoustic signals are obtained to evoke brainstem response. The visual detection threshold is determined by decrement sound pressure in 5 dB steps. The evoked responses are then filtered and averaged with 500 sweeps using a signal processor. All ABR tests are performed bilaterally and baseline Peak Equivalent Sound Pressure Levels (PESPLs) are obtained in terms of decibel (dB). All animals undergo baseline hearing test (ABR) before any kind of treatment in order to rule out previous hearing loss. Control ABR threshold measurements are compared to pretreatment values. Auditory threshold shift is subjected to statistical analysis, statistical significance is determined.
A fine needle is used for myringotomy and drugs are delivered through the same needle. The whole middle ear is filled until the fluid can be seen in the external auditory canal. […] Concentration is calculated using this volume. […]

[2] = system: dopamine release from the guinea pig cochlea preparation
Protocol: The bulla tympani of a male guinea pig (weighing 150-350 g) was opened. The bony capsule of the cochlea was removed under stereomicroscopic guidance and the stria vascularis was stripped and the cochlea was fractured at the basis of the modiolus. The preparation contained the ganglion spirale, the afferent auditory fibers, the axons and axon terminals of the efferent bundles and both the inner and outer hair cells. All experiments were carried out in a perilimph-like solution, which contained […], 3.5 mM KCl, 1 mM CaCl2, 1 mM MgCl2, 2.75 mM HEPES and 2.25 mM Tris-OH at the temperature of 37° C. and pH 7.4. The osmolality was set by D-glucose and continuously saturated by 100% O2.
The cochleae were incubated with 0.2 μM [3H]dopamine (Amersham, UK, spec. act.: 31.0 Ci/mmol, 6 μCi in 1 ml) for 35 min. Each cochlea was then placed in a microvolume plexi chamber and superfused at 3 ml/min with perilymph-like solution. After 1 hour pre-perfusion the outflow was collected into 3 min-fractions. The released activity was determined by assaying […] of each sample with liquid scintillation spectrometry (Packard Tri-Carb 1900TR). After collecting samples for 57 minutes (19 fractions) each cochlea was transferred from the microchambers to 500 μl of 10% trichloroacetic acid for one day and 100 μl was assayed for tissue radioactivity. […] Electrical field stimulation was applied for one fraction period (3 min, 360 pulses) at 60 V, 2 Hz and 0.5 ms duration at the 3rd and 13th fractions. The pulses were delivered by a Grass S88 stimulator (West Warwick, USA) through platinum electrodes at the top and bottom of the tissue chamber.
To best describe the release of dopamine during one collecting period, the fractional release (FR) of the tritium-outflow was determined as the percentage of total radioactivity present in the tissue at the time of sample collection. The fractional release evoked by field stimulations (S1 and S2) was calculated by the area-under-the-curve, i.e., by subtracting the mean of the basal release from the total fractional release during the electrical stimulation (Halmos G, Gáborján A, Lendvai B, Répássy G, Z Szabó L, Vizi E S, (2000) Veratridine-evoked release of dopamine from guinea pig isolated cochlea. Hear Res 144: 89-96, Halmos G, Lendvai B, Gáborján A, Baranyi M, Z Szabó L, Csokonai Vitéz L, (2002) Simultaneous measurement of glutamate and dopamine release from isolated guinea pig cochlea. Neurochem Int 40: 243-248). The effects of drugs on the field stimulation-evoked [^3H]dopamine release were expressed by the calculated ratio of FRS2 over FRS1, in the presence and in the absence of the drug, respectively. The effect of drugs on the resting outflow of tritium was determined as the ratio of the sum of the two highest consecutive resting FR values in the presence of the drug and before the drug reached the cochleae (FRR2/FRR1). Data are expressed as the means±S.E.M. ANOVA was used for statistical analysis. Tukey post-hoc test was applied to determine the significance of pair wise comparisons.

[3] = system: neomycin-induced hearing loss; details: mice
Protocol: Left ears were left for vehicle control (NaCl injection). […] Click stimulations to the ear including various frequencies were used to evoke the auditory response in the brainstem that was measured by multiple electrodes placed on the head of the animal.

SMILES: C#CCN[C@@H]1CCc2ccccc21 [Rasagiline, R(+)-N-propargyl-1-aminoindan]
- hearing threshold compared to threshold prior to neomycine treatment ([1]; Rasagiline intratympanically together with neomycine): remains unchanged
- protection against ototoxic effect of neomycine ([1]; intraperitoneally on day of neomycine treatment and next three days): can not prevent
- field stimulation-evoked dopamine release (FRS2/FRS1) ([2]; 100 μM Rasagiline): increase was significant
- evoked dopamine release, all timing groups vs control ([2]; 100 μM, 3-21 min perfusion): significant enhancement
- resting release of dopamine (FRR2/FRR1) ([2]; 100 μM, longest duration, 21 minutes prior to stimulation): failed to induce significant differences
- field stimulation-evoked dopamine release (FRS2/FRS1) ([2]; 300 μM Rasagiline): increase was significant
- effect on dopamine release, concentration dependence ([2]; 1-300 μM, FIG. 2): concentration dependent
- cochlear DA release ([2]; higher doses (of 1, 10, 100, 300 μM), added 15 min prior to second field stimulation): elevate
- cochlear dopamine release ([2]; low concentration (of 1, 10, 100, 300 μM), added 15 min prior to second field stimulation): did not change
- hearing threshold compared to threshold prior to neomycine treatment ([3]; 0.5 mg Rasagiline intratympanically together with neomycine): remained unchanged
- protection against ototoxic effect of neomycine ([3]; intraperitoneally 50 mg/kg daily, day of neomycine treatment and next three days): could not prevent
